Assay results as given in patent US12383567B2, “Use of cannabinoids in the treatment of epilepsy” (Jazz Pharmaceuticals Research UK Limited, priority 2017, dated 2025).

Test: Drug-drug interaction between cannabidiol (CBD) and tacrolimus in an epilepsy patient (clinical trial, open label phase)
Assay type: in vivo, human
Method: The patient was a person with refractory epilepsy receiving the immunosuppressant drug tacrolimus for interstitial nephritis.
The patient had been stable on tacrolimus at a dose of 5 mg twice per day for a year prior to entry into a clinical trial on the use of CBD to treat childhood-onset epilepsy. At the time of entry into the study their blood level of tacrolimus was between 3.9 and 8.4 ng/mL.
The patient was initially randomized to the sesame oil placebo arm of the trial, during this phase there was no change in the levels of tacrolimus or serum creatine.
The dose of tacrolimus was reduced repeatedly while receiving CBD as described in FIG. 1. A dose of 0.5 mg twice per day (a 10-fold reduction) was finally reached.

[1] = during the time the subject was taking CBD with tacrolimus

**Q.** Which results are given for `C=C(C)[C@@H]1CCC(C)=C[C@H]1c1c(O)cc(CCCCC)cc1O` [CBD, Cannabidiol]?
**A.** blood urea nitrogen (BUN) change [1]: significant increase; serum creatine levels change [1]: significant increase; tacrolimus toxicity (open label phase, receiving CBD concurrently with tacrolimus): signs of tacrolimus toxicity
